According to ChEMBL document CHEMBL1201862, “PubChem BioAssay data set” (2004):
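Each compound was tested at five concentrations against cells in 96-well plates for 48 hours. At the GI50, growth is halved.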 The source made the active and inactive calls. Rule as the data show it: active = GI50 up to about 1.1 µM and inactive = higher.

How the values were obtained:
Assay in all cases: DTP human tumour cell line panel, 48 h
[1] = test system: OVCAR-5
[2] = test system: HCT-116
[3] = test system: SR
[4] = test system: CAKI-1
[5] = test system: CCRF-CEM
[6] = test system: ACHN
[7] = test system: OVCAR-4
[8] = test system: MOLT-4
[9] = test system: UACC-257
[10] = test system: T47D
[11] = test system: LOX IMVI
[12] = test system: NCI-H23
[13] = test system: A549
[14] = test system: HCC 2998
[15] = test system: SW-620
[16] = test system: U-251
[17] = test system: DU-145
[18] = test system: NCI-H522
[19] = test system: BT-549

## CCOC(=O)C1Cc2c(cc3c4c(cccc24)N(C(C)=O)C3)N(C)C1 (centres undefined)
[1]
  GI50: 17.7 µM (inactive)
[2]
  GI50: 3.67 µM (inactive)
[3]
  GI50: 41.6 µM (inactive)
[4]
  GI50: 7.71 µM (inactive)
[5]
  GI50: 0.867 µM (active)
[6]
  GI50: 7.91 µM (inactive)
[7]
  GI50: 84.9 µM (inactive)
[8]
  GI50: 4.02 µM (inactive)
[9]
  GI50: 39 µM (inactive)
[10]
  GI50: 5.58 µM (inactive)
[11]
  GI50: 6.35 µM (inactive)
[12]
  GI50: > 100 µM (inactive)
[13]
  GI50: > 100 µM (inactive)
[14]
  GI50: > 100 µM (inactive)
[15]
  GI50: 4.86 µM (inactive)
[16]
  GI50: 4.93 µM (inactive)
[17]
  GI50: > 100 µM (inactive)
[18]
  GI50: 0.0681 µM (active)

## C=CCCCN1C(=O)C2C3c4ccccc4C(C=O)(c4ccccc43)C2C1=O (centres undefined)
[1]
  GI50: 18.9 µM (inactive)
[2]
  GI50: 3.13 µM (inactive)
[3]
  GI50: 4.79 µM (inactive)
[4]
  GI50: 16 µM (inactive)
[5]
  GI50: 3.58 µM (inactive)
[6]
  GI50: 13.6 µM (inactive)
[7]
  GI50: 11.4 µM (inactive)
[8]
  GI50: 4.57 µM (inactive)
[9]
  GI50: 13 µM (inactive)
[10]
  GI50: 8.91 µM (inactive)
[11]
  GI50: 6.07 µM (inactive)
[12]
  GI50: 12.4 µM (inactive)
[13]
  GI50: 15.2 µM (inactive)
[14]
  GI50: 14.7 µM (inactive)
[15]
  GI50: 13 µM (inactive)
[16]
  GI50: 11.2 µM (inactive)
[17]
  GI50: 11.4 µM (inactive)
[18]
  GI50: 8.57 µM (inactive)

## C=C[C@@H]1C(CO)=CCC2[C@H]1CCC1C(C)(C)C(=O)CC[C@]21C (some centres undefined)
[1]
  GI50: > 100 µM (inactive)
[2]
  GI50: > 100 µM (inactive)
[3]
  GI50: > 100 µM (inactive)
[4]
  GI50: > 100 µM (inactive)
[5]
  GI50: > 100 µM (inactive)
[6]
  GI50: > 100 µM (inactive)
[7]
  GI50: > 100 µM (inactive)
[8]
  GI50: > 100 µM (inactive)
[9]
  GI50: > 100 µM (inactive)
[10]
  GI50: > 100 µM (inactive)
[11]
  GI50: > 100 µM (inactive)
[12]
  GI50: > 100 µM (inactive)
[13]
  GI50: > 100 µM (inactive)
[14]
  GI50: > 100 µM (inactive)
[15]
  GI50: > 100 µM (inactive)
[16]
  GI50: > 100 µM (inactive)
[17]
  GI50: > 100 µM (inactive)
[18]
  GI50: > 100 µM (inactive)

## Oc1cn(-c2ccc(Cl)cc2)nc1-c1nnc(Nc2ccccc2)o1
[1]
  GI50: 88.7 µM (inactive)
[2]
  GI50: 16.1 µM (inactive)
[4]
  GI50: 32.3 µM (inactive)
[6]
  GI50: 25.6 µM (inactive)
[7]
  GI50: 34.8 µM (inactive)
[9]
  GI50: 21.3 µM (inactive)
[10]
  GI50: 23 µM (inactive)
[12]
  GI50: 14.1 µM (inactive)
[13]
  GI50: 20.4 µM (inactive)
[15]
  GI50: 19.1 µM (inactive)
[16]
  GI50: 17.5 µM (inactive)
[17]
  GI50: 15.4 µM (inactive)
[18]
  GI50: 17.3 µM (inactive)

## O=C1CC(c2ccc[nH]2)=NN1c1ccccc1
[1]
  GI50: > 100 µM (inactive)
[2]
  GI50: > 100 µM (inactive)
[19]
  GI50: > 100 µM (inactive)
[4]
  GI50: > 100 µM (inactive)
[5]
  GI50: 88.5 µM (inactive)
[6]
  GI50: > 100 µM (inactive)
[7]
  GI50: > 100 µM (inactive)
[8]
  GI50: 27.8 µM (inactive)
[9]
  GI50: > 100 µM (inactive)
[10]
  GI50: > 100 µM (inactive)
[11]
  GI50: > 100 µM (inactive)
[12]
  GI50: > 100 µM (inactive)
[13]
  GI50: > 100 µM (inactive)
[15]
  GI50: > 100 µM (inactive)
[16]
  GI50: > 100 µM (inactive)
[17]
  GI50: > 100 µM (inactive)
[18]
  GI50: > 100 µM (inactive)

## Cc1cccc2c(NCCN(C)C)c3cccc(C(=O)NCCN(C)C)c3nc12
[1]
  GI50: 1.27 µM (inactive)
[2]
  GI50: 0.0673 µM (active)
[3]
  GI50: 0.0281 µM (active)
[4]
  GI50: 0.187 µM (active)
[5]
  GI50: 0.156 µM (active)
[6]
  GI50: 0.0489 µM (active)
[7]
  GI50: 0.207 µM (active)
[8]
  GI50: 0.0262 µM (active)
[9]
  GI50: 0.693 µM (active)
[10]
  GI50: 1.81 µM (inactive)
[12]
  GI50: 0.372 µM (active)
[13]
  GI50: 0.107 µM (active)
[14]
  GI50: < 0.0455 µM (active)
[15]
  GI50: 0.0276 µM (active)
[16]
  GI50: 0.139 µM (active)
[17]
  GI50: 0.471 µM (active)
[18]
  GI50: < 0.0486 µM (active)

## Cn1c2ccccc2n2c(=O)c3cccnc3c(C#N)c12
[1]
  GI50: > 100 µM (inactive)
[2]
  GI50: 94.2 µM (inactive)
[19]
  GI50: 17.5 µM (inactive)
[4]
  GI50: > 100 µM (inactive)
[6]
  GI50: 31.1 µM (inactive)
[7]
  GI50: > 100 µM (inactive)
[8]
  GI50: 7.45 µM (inactive)
[9]
  GI50: > 100 µM (inactive)
[10]
  GI50: > 100 µM (inactive)
[11]
  GI50: 39.1 µM (inactive)
[12]
  GI50: 33.3 µM (inactive)
[15]
  GI50: 19.6 µM (inactive)
[16]
  GI50: > 100 µM (inactive)
[17]
  GI50: > 100 µM (inactive)
[18]
  GI50: 14.7 µM (inactive)

## Cc1sc2nc3n(c(=O)c2c1C)N=CN(c1ccc(Cl)cc1)C3
[1]
  GI50: > 100 µM (inactive)
[2]
  GI50: > 100 µM (inactive)
[19]
  GI50: > 100 µM (inactive)
[3]
  GI50: 63.4 µM (inactive)
[4]
  GI50: > 100 µM (inactive)
[5]
  GI50: > 100 µM (inactive)
[6]
  GI50: > 100 µM (inactive)
[7]
  GI50: > 100 µM (inactive)
[8]
  GI50: > 100 µM (inactive)
[9]
  GI50: > 100 µM (inactive)
[11]
  GI50: > 100 µM (inactive)
[12]
  GI50: > 100 µM (inactive)
[13]
  GI50: > 100 µM (inactive)
[14]
  GI50: > 100 µM (inactive)
[15]
  GI50: > 100 µM (inactive)
[16]
  GI50: > 100 µM (inactive)
[17]
  GI50: > 100 µM (inactive)
[18]
  GI50: 58.7 µM (inactive)
